Experimental data as given in US6833372B2, “Non-peptide GnRH agents, Pharmaceutical compositions, and methods for their use” (Pfizer, Inc., priority 2002, dated 2004).
In brackets after ≈: the same amount, converted by molar mass. Read-outs that look alike come from different tables or passages of the source.

What was measured:
human GnRH receptors = molecular target: T1, human GnRH receptors (Homo sapiens, UniProt P30968); test: Radioligand binding: inhibition of 125I-GnRH-A binding to human GnRH receptor membranes; conditions: HEK 293 cell membranes
T1 construct: expressed in transfected cells; host or cells: HEK 293 cells, stably transfected; membranes
T1 sequence (P30968 1-328): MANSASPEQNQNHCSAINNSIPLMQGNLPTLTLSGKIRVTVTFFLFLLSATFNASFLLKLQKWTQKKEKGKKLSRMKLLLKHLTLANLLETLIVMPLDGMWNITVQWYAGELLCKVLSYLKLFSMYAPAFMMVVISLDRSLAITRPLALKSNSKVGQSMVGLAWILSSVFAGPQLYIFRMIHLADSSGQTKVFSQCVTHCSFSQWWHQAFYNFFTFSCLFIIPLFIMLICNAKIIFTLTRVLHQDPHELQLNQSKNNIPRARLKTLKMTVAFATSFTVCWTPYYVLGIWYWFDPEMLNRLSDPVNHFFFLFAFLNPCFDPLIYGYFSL
In short: (§1)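 Membranes from rat pituitaries, or HEK 293 cells stably expressing mouse or human receptor, incubated 1 hour at room temperature with ~0.04-0.06 nM radioligand (HEPES pH 7.4, EDTA, MgCl2, BSA) and competitor at 0.1-10,000 nM. Bound ligand collected by GF/C filtration and counted; Ki derived from IC50 by Cheng-Prusoff.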

rat GnRH receptor = molecular target: T2, rat GnRH receptor (Rattus norvegicus, UniProt P30969); test: Radioligand binding: inhibition of 125I-GnRH-A binding to rat GnRH receptor (rat pituitary membranes); conditions: read-out: Ki (nM), Inhibition Binding of 125I-GnRH-A to GnRH Receptors
T2 construct: or rat pituitaries (Pel Freez Biologicals, Rogers, Ark.) were homogenized; tissue Pel Freez Biologicals; host or cells: rat pituitaries (membrane preparation)
T2 sequence (P30969 1-327): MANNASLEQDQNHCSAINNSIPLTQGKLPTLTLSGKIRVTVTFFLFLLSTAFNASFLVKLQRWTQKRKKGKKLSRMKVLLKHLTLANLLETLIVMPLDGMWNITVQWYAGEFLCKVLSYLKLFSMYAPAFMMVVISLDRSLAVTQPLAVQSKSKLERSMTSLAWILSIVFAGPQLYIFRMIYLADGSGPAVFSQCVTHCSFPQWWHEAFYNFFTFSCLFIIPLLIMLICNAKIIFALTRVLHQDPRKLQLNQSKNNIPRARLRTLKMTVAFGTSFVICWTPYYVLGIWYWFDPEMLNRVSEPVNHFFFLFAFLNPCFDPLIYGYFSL
In short: as §1

[1] = In vitro metabolism: disappearance of parent compound in human liver microsomes; format: in vitro ADME; conditions: 5 uM compound, 0.5 mg/ml protein, 2 mM NADPH, 30 minutes 37° C.
Procedure: (§2) Human, rat, dog, and monkey liver microsomes were isolated by differential centrifugation. Specimens of human liver were obtained from the International Institute for the Advancement of Medicine (Scranton, Pa.). The disappearance of the parent compound was studied in a mixture containing 5 uM compound, 0.5 mg/ml microsomal protein, and 2 mM NADPH in 50 mM K phosphate buffer, pH 7.4. Samples were incubated for 30 minutes at 37° C. The reaction was terminated by the addition of acetonitrile and compounds analyzed by LC-MS as described above.

[2] = In vitro metabolism: disappearance of parent compound in rat liver microsomes (male, female); format: in vitro ADME; conditions: 5 uM compound, 30 minutes 37° C.; for Fem. Rat (FR) % rem. 30′: female rat liver microsomes; for Male Rat (MR) % rem. 30′: male rat liver microsomes
Procedure: as §2

[3] = In vitro metabolism: disappearance of parent compound in dog liver microsomes; format: in vitro ADME; conditions: 5 uM compound, 30 minutes 37° C.
Procedure: as §2

[4] = In vitro metabolism: disappearance of parent compound in monkey liver microsomes; format: in vitro ADME; conditions: 5 uM compound, 30 minutes 37° C.
Procedure: as §2

[5] = Solubility at pH2 and pH6; format: physicochemical
[6] = Pharmacokinetics in rats (jugular vein cannula, plasma LC-MS); format: in vivo, Rat
Procedure: Rats (male or female, 200-225 g) were prepared with indwelling jugular vein cannula as described by Harms et al., Applied Physiol. 36:391-398 (1974), and allowed to recover overnight with free access to the standard vivarium chow and water. […] […] The blood samples were withdrawn at specific times, plasma was immediately separated and compound extracted with ethyl acetate. The samples were analyzed by LC-MS using 30-90% gradient of ACN in 50 mM ammonium acetate.
The pharmacokinetic parameters were calculated using WinNonlin software (Scientific Consulting Inc.). The bioavailability was calculated as AUCp.o./AUCi.v., where AUCp.o. and AUC i.v. are areas under the plasma concentration-time curve after oral and i.v. administration, respectively.

Rat plasma % remain = format: in vitro ADME
H S A = H S A (Homo sapiens, UniProt P02768); test: H S A column α; format: in vitro ADME
H S A, sequence (P02768 25-609): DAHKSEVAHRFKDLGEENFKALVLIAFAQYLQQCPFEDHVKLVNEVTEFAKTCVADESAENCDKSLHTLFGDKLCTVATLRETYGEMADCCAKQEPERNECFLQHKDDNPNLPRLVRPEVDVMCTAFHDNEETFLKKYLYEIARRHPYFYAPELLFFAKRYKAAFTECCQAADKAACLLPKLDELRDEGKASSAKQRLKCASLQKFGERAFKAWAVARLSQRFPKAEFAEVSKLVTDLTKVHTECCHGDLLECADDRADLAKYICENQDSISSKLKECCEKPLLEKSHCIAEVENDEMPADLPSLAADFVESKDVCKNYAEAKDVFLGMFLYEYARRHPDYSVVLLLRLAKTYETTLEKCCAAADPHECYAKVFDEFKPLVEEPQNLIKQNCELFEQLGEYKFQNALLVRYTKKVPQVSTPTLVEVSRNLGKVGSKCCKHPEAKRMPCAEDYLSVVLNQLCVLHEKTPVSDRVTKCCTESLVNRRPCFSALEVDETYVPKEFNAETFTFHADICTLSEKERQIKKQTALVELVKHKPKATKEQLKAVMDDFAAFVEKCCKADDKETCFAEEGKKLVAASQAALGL

[7] = pH 6, aqueous buffer, pH6, read-out: Solubility μg/ml pH6
[8] = pH 2, simulated gastric fluid, pH2, read-out: Solubility μg/ml pH2

Row | SMILES | Ki (human GnRH receptors) [nM] | Ki (rat GnRH receptor) [nM] | Human % rem. 30′ [1] [%] | Fem. Rat (FR) % rem. 30′ [2] [%] | Male Rat (MR) % rem. 30′ [2] [%] | Dog % rem. 30′ [3] [%] | Monkey % rem. [4] [%] | solubility [5, 7] [µg/mL] | FR T1/2 hr ([6]; female rat, 10 mg/kg as 5 mg/ml solution in 10% DMSO, 10% cremophor, 80% saline (footnote 5), 10 mg/kg) [h] | Cmax ([6]; female rat, 10 mg/kg as 5 mg/ml solution in 10% DMSO, 10% cremophor, 80% saline (footnote 5), 10 mg/kg, read-out: FR Cmax) [nM] | Cmax ([6]; female, rat, plasma, po, 10 mg/kg, female rat, 10 mg/kg as 5 mg/ml solution in 10% DMSO, 10% cremophor, 80% saline (footnote 5), read-out: FR Cmax) [nM] | half-life ([6]; female, rat, plasma, po, 10 mg/kg, female rat, 10 mg/kg as 5 mg/ml solution in 10% DMSO, 10% cremophor, 80% saline (footnote 5), read-out: FR T1/2 hr (converted)) [h] | Rat plasma % remain (Rat plasma % remain) [%] | MR Fp.o. ([6]; male rat, male rats dosed orally at 50 mg/kg) [%] | Cmax ([6]; male, rat, plasma, oral, 50 mg/kg, male rat, male rats dosed orally at 50 mg/kg, read-out: MR Cmax) [nM] | half-life ([6]; male, rat, plasma, oral, 50 mg/kg, male rat, male rats dosed orally at 50 mg/kg, read-out: MR T1/2 hr (converted)) [h] | Tmax ([6]; male, rat, plasma, oral, 50 mg/kg, male rat, male rats dosed orally at 50 mg/kg, read-out: MR Tmax hr) [h] | H S A column α (H S A) | solubility [5, 8] [µg/mL]
1 | COc1nc(NCCCN2CCOCC2)nc(OC)c1NC(=O)c1ccc(Cc2cc3c(cc2C)C(C)(C)CCC3(C)C)o1 [Example B4, 5-(3,5,5,8,8-Pentamethyl-5,6,7,8-tetrahydro-naphthalen-2-ylmethyl)-furan-2-carboxylic Acid [4,6-dimethoxy-2-(3-morpholin-4-yl-propylamino)-pyrimidin-5-yl]-amide] | 0.5 | 0.4 | 38 | 100 | 38 | 26 | 0 | 2.5 (≈ 4.13 µM) | – | – | – | – | – | – | – | – | – | – | –
2 | COc1nc(NCCCN2CCOCC2)nc(OC)c1NC(=O)c1ccc(Cc2cc3c(cc2C)C(C)(C)OC3(C)C)o1 [Example D3, 5-(1,1,3,3,6-Pentamethyl-1,3-dihydro-isobenzofuran-5-ylmethyl)-furan-2-carboxylic Acid [4,6-dimethoxy-2-(3-morpholin-4-yl-propylamino)-pyrimidin-5-yl]-amide] | 24.5 | 0.4 | – | – | 22 | – | – | – | 2.3 | 200 | 400 | 1.6 | 100 | – | – | – | – | – | –
3 | COc1nc(NCCN2CCCC2)nc(OC)c1NC(=O)c1ccc(Cc2cc3c(cc2C)C(C)(C)OC3(C)C)o1 [Example D5] | 1.5 | 0.84 | 80 | 95 | 79 | 98 | 30 | > 30 | – | – | – | – | – | 34 | 700 | 7 | 4 | 2 | > 30
4 | COc1nc(NCCNCCN)nc(OC)c1NC(=O)c1ccc(Cc2cc3c(cc2C)C(C)(C)OC3(C)C)o1 [Example D12, N-[2-({2-[(2-aminoethyl)amino]ethyl}amino)-4,6-dimethoxypyrimidin-5-yl]-5-[(1,1,3,3,6-pentamethyl-1,3-dihydro-2-benzofuran-5-yl)methyl]-2-furamide] | 1.2 | 0.8 | 81 | 80 | 54 | 59 | 37 | > 30 | – | – | – | – | – | – | – | – | – | – | > 30
5 | COc1nc(NCCCNCCCN)nc(OC)c1NC(=O)c1ccc(Cc2cc3c(cc2C)C(C)(C)OC3(C)C)o1 [Example D17, N-[2-({3-[(3-Aminopropyl)amino]propyl}amino)-4,6-dimethoxypyrimidin-5-yl}-5-[(1,1,3,3,6-pentamethyl-1,3-dihydro-2-benzofuran-5-yl)methyl]-2-furamide] | 0.65 | 0.2 | 45 | 24 | 23 | 29 | 42 | – | – | – | – | – | – | – | – | – | – | 10 | –
6 | COc1nc(NCCCN2CCCCC2)nc(OC)c1NC(=O)c1ccc(Cc2cc3c(cc2C)C(C)(C)OC3(C)C)o1 [Example D22, N-(4,6-Dimethoxy-2-{[3-piperidin-1-ylpropyl)amino]-pyrimidin-5-yl}-5-[(1,1,3,3,6-pentamethyl-1,3-dihydro-2-benzofuran-5-yl)methyl]-2-furamide] | 0.96 | 0.3 | 66 | 94 | 69 | 87 | 5 | – | – | – | – | – | – | – | – | – | – | – | –
7 | COCCOc1nc(OC)c(NC(=O)c2ccc(Cc3cc4c(cc3C)CCCC4(C)C)o2)c(OC)n1 [Example E1, 5-(3,8,8-Trimethyl-5,6,7,8-tetrahydro-naphthalen-2-ylmethyl)-furan-2-carboxylic acid [4,6-dimethoxy-2-(2-methoxy-ethoxy)-pyrimidin-5-yl]-amide] | 3.4 | 7 | 48 | 76 | 12 | 28 | 0 | 2 (≈ 3.92 µM) | – | – | – | – | – | – | – | – | – | – | –
8 | COc1nc(NCCCN2CCOCC2)nc(OC)c1NC(=O)c1ccc(Cc2cc3c(cc2C)CCCC3(C)C)o1 [Example F1, 5-(3,8,8-Trimethyl-5,6,7,8-tetrahydro-naphthalen-2-ylmethyl)-furan-2-carboxylic acid [4,6-dimethoxy-2-(3-morpholin-4-yl-propylamino)-pyrimidin-5-yl]-amide] | 0.91 | 0.35 | 39 | 81 | 36 | 31 | 0 | 12 (≈ 20.8 µM) | – | – | – | – | – | – | – | – | – | – | –
9 | COc1nc(NCCC#N)nc(OC)c1NC(=O)c1ccc(Cc2cc3c(cc2C)CCCC3(C)C)o1 [Example F2, 5-(3,8,8-Trimethyl-5,6,7,8-tetrahydro-naphthalen-2-ylmethyl)-furan-2-carboxylic acid [2-(2-cyano-ethylamino)-4,6-dimethoxy-pyrimidin-5-yl]-amide] | 1.3 | 1.7 | 70 | 100 | 74 | 85 | 2 | – | – | – | – | – | 100 | – | – | – | – | – | –
